Test system: bacteria causing the soft rot (Erwinia carotovora)
Assay: Inhibition test of growth of bacteria causing soft rot, Reference Test Example 5
Type: cell-based
Settings: for formed colonies (growth state), grade: PSA medium, 27 degrees Celsius, 2 days
Protocol: An inhibition test of the growth of bacteria causing the soft rot was done, when a control agent was directly applied to the bacteria causing the soft rot. A given volume of each pesticide of mepanipyrim (Flupika FL [trade name] manufactured by Nippon Soda Co., Ltd.) and streptomycin (Mycin Wettable powder [trade name] manufactured by Hokko Chemical Industry Co., Ltd.) was added together with a suspension of the bacteria causing the soft rot (Erwinia carotovora) to a preliminarily dissolved PSA culture medium (55 degrees Celsius) for subsequent thorough agitation, which was then spread on a plate for culturing at 27 degrees Celsius for 2 days, to examine the growth state. Subsequently, the formed colonies were examined according to the following three grades. • +: at the same level as the level of non-treated lot.
Plus or minus: apparently less than the colonies of the non-treated lot. • −: almost no colonies observed.

## [H]/N=C(/N)N[C@H]1[C@H](O)[C@@H](O)[C@H](O[C@@H]2O[C@@H](C)[C@](O)(C=O)[C@H]2O[C@@H]2O[C@@H](CO)[C@H](O)[C@@H](O)[C@@H]2NC)[C@@H](N/C(N)=N\[H])[C@@H]1O [Streptomycin]
1 ppm active ingredient
  formed colonies (growth state), grade: +, ±
10 ppm active ingredient
  formed colonies (growth state), grade: −, −
Active ingredient concentration of 10 ppm
  direct antibacterial activity against Erwinia carotovora (in words): exerted a direct antibacterial activity
